Results taken from patent publication US20260294922A1, “Inhibitors of JUN N-Terminal Kinases (JNK1, JNK2, and/or JNK3) and Mitogen-Activated Protein Kinases (MAPK8, MAPK9, and/or MAPK10) and Methods of Using Same” (Baylor College of Medicine, priority 2023, published 2026).
≈ marks a conversion by molar mass, not a printed value. Entries after “also recorded” stand apart in the source; their conditions may differ.

What was measured:
JNK1 [1] = molecular target: T1, JNK1 (Homo sapiens, UniProt P45983); test: JNK1 kinase (intrinsic ATPase, Kinase-Glo) assay; assay type: biochemical
T1 sequence (P45983 whole entry): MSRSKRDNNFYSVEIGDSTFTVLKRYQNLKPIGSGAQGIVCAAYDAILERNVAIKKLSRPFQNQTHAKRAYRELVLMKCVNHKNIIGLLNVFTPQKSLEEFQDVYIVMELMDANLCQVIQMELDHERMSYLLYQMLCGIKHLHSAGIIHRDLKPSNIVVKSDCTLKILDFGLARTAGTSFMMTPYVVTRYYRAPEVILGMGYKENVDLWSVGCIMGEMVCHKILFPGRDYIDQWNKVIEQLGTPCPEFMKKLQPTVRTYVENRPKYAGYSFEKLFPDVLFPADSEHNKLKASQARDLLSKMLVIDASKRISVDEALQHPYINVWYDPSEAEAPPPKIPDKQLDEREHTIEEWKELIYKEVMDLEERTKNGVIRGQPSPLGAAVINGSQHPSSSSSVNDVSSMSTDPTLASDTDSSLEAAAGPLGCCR
Description: JNK1, JNK2, and JNK3 hydrolyze ATP to ADP without any peptide substrates. This allows a very robust and fast endpoint assay where the remaining concentration of ATP is measured (BMG ClarioStar Plus plate reader) using the Kinase-Glo Assay kit from Promega (V6711). A luminescence signal is measured, which is produced by the catalytic conversion of beetle luciferin to oxyluciferin by luciferase. Potential inhibition of luciferase (i.e., false negatives) is easily detected, because assays without kinase are always included, and less ATP than is present in this control reaction could also indicate an inhibition of luciferase, which can be excluded by a counter screen with only luciferase.
To mitigate violation of the linear initial velocity principle, which is a problem in end-point assays when doing dose-responses, the enzyme concentration was carefully optimized, in a total assay volume of 25 μL. […] The kinase reaction was done for 30 or 60 min at 30° C., and detection of leftover ATP was measured according to Promega's protocol. […] Fractional activities were obtained from normalized data. Non-linear regression (GraphPad Prism7) and a modified Morrison equation for tight binding was used to determine apparent Ki values for inhibitors, assuming no particular mode of inhibition. An orthogonal binding assay (LanthaScreen) was outsourced to ThermoFisher Scientific's SelectScreen Services to determine IC50 values.

JNK2 [2] = molecular target: T2, JNK2 (Homo sapiens, UniProt P45984); test: JNK2 kinase (intrinsic ATPase, Kinase-Glo) assay; assay type: biochemical; settings: Table 3a; read-out: Kd JNK2
T2 sequence (P45984 whole entry): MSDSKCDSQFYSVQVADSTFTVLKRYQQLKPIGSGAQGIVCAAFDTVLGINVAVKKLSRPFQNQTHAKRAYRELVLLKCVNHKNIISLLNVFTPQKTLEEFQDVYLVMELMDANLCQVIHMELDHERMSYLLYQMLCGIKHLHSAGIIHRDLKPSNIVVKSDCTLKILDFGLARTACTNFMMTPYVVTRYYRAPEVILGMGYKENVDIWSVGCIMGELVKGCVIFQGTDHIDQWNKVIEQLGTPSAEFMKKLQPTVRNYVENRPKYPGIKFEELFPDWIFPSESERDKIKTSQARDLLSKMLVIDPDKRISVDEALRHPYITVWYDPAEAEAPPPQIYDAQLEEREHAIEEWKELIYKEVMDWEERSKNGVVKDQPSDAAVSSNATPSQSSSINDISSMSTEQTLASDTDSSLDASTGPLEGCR

JNK3 [3] = molecular target: T3, JNK3 (Homo sapiens, UniProt P53779); test: JNK3 kinase (intrinsic ATPase, Kinase-Glo) assay; assay type: biochemical; settings: Table 3a; read-out: Kd JNK3
T3 sequence (P53779 whole entry): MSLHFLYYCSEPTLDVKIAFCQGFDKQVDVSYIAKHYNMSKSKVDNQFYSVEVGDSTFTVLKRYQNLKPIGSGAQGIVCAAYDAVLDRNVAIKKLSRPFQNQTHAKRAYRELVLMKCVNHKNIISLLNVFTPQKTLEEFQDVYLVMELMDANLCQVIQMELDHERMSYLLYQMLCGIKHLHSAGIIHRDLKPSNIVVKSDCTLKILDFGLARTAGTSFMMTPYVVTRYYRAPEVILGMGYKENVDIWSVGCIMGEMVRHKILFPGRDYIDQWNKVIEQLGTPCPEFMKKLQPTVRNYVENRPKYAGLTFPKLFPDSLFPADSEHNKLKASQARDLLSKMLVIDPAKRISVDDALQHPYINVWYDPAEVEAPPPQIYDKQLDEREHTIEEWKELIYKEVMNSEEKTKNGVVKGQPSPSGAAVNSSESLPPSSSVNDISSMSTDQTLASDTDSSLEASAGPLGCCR

CSNK1E = molecular target: T4, CSNK1E (Homo sapiens, UniProt P49674); test: ThermoFisher SelectScreen, CSNK1E; assay type: binding
T4 construct: purchased ThermoFisher (SelectScreen)
T4 sequence (P49674 whole entry): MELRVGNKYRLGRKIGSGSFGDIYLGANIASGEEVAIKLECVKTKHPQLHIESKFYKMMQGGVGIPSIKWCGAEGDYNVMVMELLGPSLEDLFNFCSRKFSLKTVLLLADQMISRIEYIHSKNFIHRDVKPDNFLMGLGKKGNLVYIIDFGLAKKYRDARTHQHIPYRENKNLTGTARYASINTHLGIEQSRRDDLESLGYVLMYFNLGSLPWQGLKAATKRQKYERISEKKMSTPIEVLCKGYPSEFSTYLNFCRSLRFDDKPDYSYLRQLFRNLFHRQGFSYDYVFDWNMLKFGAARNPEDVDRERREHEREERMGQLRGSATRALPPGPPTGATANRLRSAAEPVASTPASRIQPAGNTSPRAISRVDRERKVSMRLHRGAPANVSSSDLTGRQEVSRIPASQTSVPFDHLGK

MEK4 = molecular target: T5, MEK4 (Homo sapiens, UniProt P45985); test: ThermoFisher SelectScreen, MEK4; assay type: binding
T5 construct: purchased ThermoFisher (SelectScreen)
T5 sequence (P45985 1-399): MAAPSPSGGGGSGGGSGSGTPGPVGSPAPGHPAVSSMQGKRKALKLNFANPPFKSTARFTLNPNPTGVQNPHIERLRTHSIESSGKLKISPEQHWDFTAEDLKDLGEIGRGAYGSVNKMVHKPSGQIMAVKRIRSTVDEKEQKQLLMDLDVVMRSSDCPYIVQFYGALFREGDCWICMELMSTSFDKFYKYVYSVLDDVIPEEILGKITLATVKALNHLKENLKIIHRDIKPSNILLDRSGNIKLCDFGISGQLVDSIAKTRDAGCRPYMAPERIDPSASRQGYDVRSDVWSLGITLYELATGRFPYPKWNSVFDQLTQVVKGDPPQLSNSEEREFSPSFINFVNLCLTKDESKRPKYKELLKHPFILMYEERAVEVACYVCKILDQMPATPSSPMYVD

hVPS34 = molecular target: T6, hVPS34 (Homo sapiens, UniProt Q8NEB9); test: ThermoFisher SelectScreen, hVPS34; assay type: binding; settings: Table 4
T6 construct: purchased ThermoFisher (SelectScreen, outsourced service)
T6 sequence (Q8NEB9 whole entry): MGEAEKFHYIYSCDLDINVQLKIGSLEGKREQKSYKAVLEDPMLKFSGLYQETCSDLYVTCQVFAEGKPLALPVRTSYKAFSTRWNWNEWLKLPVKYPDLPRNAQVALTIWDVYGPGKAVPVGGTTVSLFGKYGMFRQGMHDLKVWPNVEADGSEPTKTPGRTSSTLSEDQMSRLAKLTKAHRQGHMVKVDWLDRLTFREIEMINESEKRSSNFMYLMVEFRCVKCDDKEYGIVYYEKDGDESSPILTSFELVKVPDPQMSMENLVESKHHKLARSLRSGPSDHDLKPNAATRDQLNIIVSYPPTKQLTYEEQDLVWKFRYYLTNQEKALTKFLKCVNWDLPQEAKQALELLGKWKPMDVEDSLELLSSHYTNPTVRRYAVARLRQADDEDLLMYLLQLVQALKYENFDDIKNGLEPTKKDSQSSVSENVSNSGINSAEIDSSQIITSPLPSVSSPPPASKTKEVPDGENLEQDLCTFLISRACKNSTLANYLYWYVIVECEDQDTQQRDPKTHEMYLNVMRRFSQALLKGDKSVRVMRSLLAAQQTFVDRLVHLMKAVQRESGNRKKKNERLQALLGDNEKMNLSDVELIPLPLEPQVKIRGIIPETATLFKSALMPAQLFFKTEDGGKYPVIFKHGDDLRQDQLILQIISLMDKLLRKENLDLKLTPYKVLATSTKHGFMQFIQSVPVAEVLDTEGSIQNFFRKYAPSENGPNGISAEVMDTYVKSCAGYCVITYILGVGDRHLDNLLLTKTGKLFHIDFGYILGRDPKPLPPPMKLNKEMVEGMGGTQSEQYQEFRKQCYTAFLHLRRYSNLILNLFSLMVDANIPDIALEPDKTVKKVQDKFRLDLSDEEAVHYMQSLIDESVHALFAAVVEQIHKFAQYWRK
Description: To mitigate violation of the linear initial velocity principle, which is a problem in end-point assays when doing dose-responses, the enzyme concentration was carefully optimized, in a total assay volume of 25 μL. The assay was performed using 10 μM ATP, 0.02% Tween-20, kinase buffer from Cell Signaling (#9802) in white 384-well plates. The kinase reaction was done for 30 or 60 min at 30° C., and detection of leftover ATP was measured according to Promega's protocol. […] Fractional activities were obtained from normalized data. Non-linear regression (GraphPad Prism7) and a modified Morrison equation for tight binding was used to determine apparent Ki values for inhibitors, assuming no particular mode of inhibition. An orthogonal binding assay (LanthaScreen) was outsourced to ThermoFisher Scientific's SelectScreen Services to determine IC50 values.
One of the earliest compounds to be synthesized with favorable enzymatic activity towards JNK1 and JNK3 was CDD-2346. A KINOMEscan was performed for CDD-2346 to establish whether the selectivity of this chemical scaffold was suitable or required optimization. […] To confirm that the activity against each kinase was a true result and not a false positive, CDD-2346 was evaluated in kinase assays using ThermoFisher SelectScreen platform. The results from these assays are provided herein (Table 4). The important innovative steps described are the optimization of selectivity a) for JNK isoforms; b) for kinases considered “in-pathway”; and c) to avoid kinases considered “out-of-pathway”.

JNK3 [4] = molecular target: T3, JNK3; test: ThermoFisher SelectScreen, JNK3; assay type: binding
JNK1 [5] = molecular target: T1, JNK1; test: Promega NanoBRET intracellular target engagement (tracer K10 displacement), JNK1; assay type: cell-based
JNK2 [6] = molecular target: T2, JNK2; test: Promega NanoBRET intracellular target engagement (tracer K10 displacement), JNK2; assay type: cell-based
JNK3 [7] = molecular target: T3, JNK3; test: Promega NanoBRET intracellular target engagement (tracer K10 displacement), JNK3; assay type: cell-based
[8] = In vitro metabolism in mouse liver microsomes; settings: mouse, microsomes
Description: (§1) The target product profile seeks to deliver JNK inhibitor as a once daily oral administration. To prioritize compounds for further development, in vitro metabolism of several CDD JNK inhibitors were determined to approximate the plasma half-life and the rate of metabolism of the compounds in vivo.

[9] = In vitro metabolism in human liver microsomes; settings: human, microsomes
Description: as §1

[10] = system: 12Z endometriotic epithelial cells; test: IL-1β-stimulated pro-inflammatory gene expression (qPCR) in 12Z cells; assay type: cell-based, human; settings: relative to bentamapimod
Source text: These studies indicate that NanoBRET assays are an innovative technical platform to measure target engagement of CDD JNK inhibitors with the target JNK1, JNK2 or JNK3. As further evidence that JNK inhibitors address disease-relevant endpoints, biological responses of JNK inhibitors are provided herein, as measured in target tissue cellular models. 12Z immortalized endometriotic epithelial cells and patient-derived endometriotic stromal cells have been cultured with reference compound bentamapimod, CDD-2628, and CDD-2728. To exemplify the effects of CDD-2628 and CDD-2728 in the endometrial cell cultures, gene expression was measured using qPCR (expressed as fold-change relative to GAPDH, a housekeeping gene that is not affected by culture treatment effects) that reflect synthesis of inflammatory lipids (PTGS2), transformation of cells to a more migration and invasive potential (MMP-3) and chemoattractant cytokines to recruit pro-inflammatory immune cells (IL-6, IL-8).
In the culture systems employed in FIGS. 12A-12J, FIGS. 13A-13B, FIGS. 14A-14H, FIGS. 15A-15H, and FIGS. 16A-16F, the treatment of cells with IL-1β is used to mimic the peritoneal environment where IL-1β is most frequently measured at higher concentrations in patients with endometriosis (0.1 ng/mL-1 ng/mL) than in unaffected women (<0.01 ng/mL). The use of IL-1β to mimic the pro-inflammatory environment is a common method in cellular assays for endometriosis research. Although the concentrations of IL-1β in these cell cultures are higher than measured in peritoneal fluid, there are multiple other pro-inflammatory cytokines in peritoneal fluid that contribute to the pro-inflammatory environment.
Specifically, 12Z cells were plated at a density of 1×10^5 cells/well in a 12-well tissue culture plate, serum-starved overnight (17-18 h), pre-treated with vehicle (DMSO) or JNK inhibitor for 30 minutes, then stimulated with 10 ng/ml IL-1β in the presence or absence of the JNK inhibitors for 6 hours. After the 6-hour treatment, mRNA was extracted from the cells using the Qiagen RNEasy mini isolation kit and […] of mRNA was reverse transcribed into cDNA using the qScript cDNA Supermix (Quanta Biosciences). cDNA was amplified using SYBR Green Master Mix (Applied Biosystems) with quantitative Real Time PCR (BioRad CFX) using pre-designed and validated primers specific for genes encoding IL6, IL8, PTGS2/COX2, and MMP3 (BioRad). Relative quantification of these specific genes was calculated by the ΔΔCt method, normalizing their abundance relative to the internal housekeeping gene, GAPDH, followed by quantification relative to the vehicle-treated cells. Statistical analyses and visualizations were performed using a One Way ANOVA with a Tukey's multiple comparison post-hoc test on GraphPad Prism version 9.

[11] = system: immortalized human endometriotic epithelial cells (iHEEC); test: Phosphorylation of JNK and Jun in iHEEC; assay type: cell-based
Source text: FIG. 26A depicts the effects of CDD-2728 and CDD-3013 on phosphorylation of the JNK enzyme itself (i.e., representing MEK4 inhibition) and phosphorylation of pSer63 and pSer73 on the transcription factor Jun in immortalized human endometriotic epithelial cells (iHEEC). The HEEC cells are a well characterized cell line that are relevant for the evaluation of inflammatory endpoints and measures of epithelial-to-mesenchymal transitions (EMT). […] This is consistent with the potency relationships of CDD-2728 relative to bentamapimod observed in cytokine gene expression described above in iHEEC cells and primary human stromal endometriotic cells. […] SP600125 has been frequently described as a poorly-selective JNK-I but in this context provides additional confirmation of inhibition of the JNK target kinase for CDD-2728. […] This adds further support to the critical role of JNK-1 to the therapeutic effect of the JNK inhibitors of the disclosure.

| Structure (SMILES) | Kd (JNK1 [1]) | Kd (JNK2 [2]) | Kd (JNK3 [3]) | Kd (CSNK1E) | Kd (MEK4) | Kd (hVPS34) | Kd (JNK3 [4]) | IC50 (JNK1 [5]) | IC50 (JNK2 [6]) | IC50 (JNK3 [7]) | half-life [8] | half-life [9] | solubility (Solubility) | IL-6 expression [10] | IL-8 expression [10] | MMP-3 expression [10] | PTGS2 expression [10] | phosphorylation of JNK1 (P46) and JNK2 (P54) [11] | phosphorylation of Jun at pSer63 and pSer73 [11] |
| --- | --- | --- | --- | --- | --- | --- | --- | --- | --- | --- | --- | --- | --- | --- | --- | --- | --- | --- | --- |
| CNCc1ccc(NC(=O)c2ccn3ncc(-c4cncc5ccccc45)c3c2)cc1 [CDD-2347, 3-(isoquinolin-4-yl)-N-(4-((methylamino)methyl)phenyl)pyrazolo[1,5-a]pyridine-5-carboxamide] | 0.00039 ± 0.00011 µM | 0.0017 ± 0.00012 µM | 0.00138 ± 0.00021 µM | 3.18 µM | 0.483 µM | 0.776 µM | 0.00138 µM | 2.2 µM | 0.99 µM | 2 µM | 0.552 h | 0.505 h | 134 µM (≈ 54.7 µg/mL) |  |  |  |  |  |  |
| COc1ccc(NC(=O)c2cc3c(-c4cnc5[nH]ccc5c4)cccc3s2)cc1C(=O)N(C)C [CDD-2628, N-(3-(dimethylcarbamoyl)-4-methoxyphenyl)-4-(1H-pyrrolo[2,3-b]pyridin-5-yl)benzo[b]thiophene-2-carboxamide] | 0.00183 ± 0.00026 µM | 0.0016 ± 0.00017 µM | 0.00052 ± 5e-05 µM |  |  |  |  | 0.5 µM | 0.52 µM | 0.566 µM | 0.677 h | 1.64 h | 7.4 µM (≈ 3.48 µg/mL) | concentration-dependent decreases | improved potency; also recorded: more effective than bentamapimod | improved potency; also recorded: more effective than bentamapimod | concentration-dependent decreases |  |  |
| O=C(Nc1ccc(O)c(C(=O)N2CCCCC2)c1)c1cc2c(-c3cnc4[nH]ccc4c3)cccc2s1 [CDD-2634, N-(4-hydroxy-3-(piperidine-1-carbonyl)phenyl)-4-(1H-pyrrolo[2,3-b]pyridin-5-yl)benzo[b]thiophene-2-carboxamide] | 0.00029 ± 0.00013 µM | 0.00181 ± 0.00019 µM | 0.00262 ± 0.00028 µM |  |  |  |  | 0.172 µM | 0.161 µM | 0.119 µM | 0.983 h | 1.36 h | 1.1 µM (≈ 0.546 µg/mL) |  | more potent inhibitors of IL-8 expression than bentamapimod |  |  |  |  |
| CN(C)C(=O)c1cc(NC(=O)c2nc3c(-c4cnc5[nH]ccc5c4)cccc3s2)ccc1O [CDD-2856, N-(3-(dimethylcarbamoyl)-4-hydroxyphenyl)-4-(1H-pyrrolo[2,3-b]pyridin-5-yl)benzo[d]thiazole-2-carboxamide] | 0.00027 ± 8e-05 µM | 0.00314 ± 0.00033 µM | 0.00103 ± 7e-05 µM |  |  |  |  | 1 µM | 1.1 µM | 2.2 µM | 0.925 h | 3.75 h | 3.8 µM (≈ 1.74 µg/mL) |  |  |  |  | inhibits the upstream phosphorylation of JNK1 and JNK2 | inhibits phosphorylation more effectively than Tanzisertib |
| O=C(Nc1ccc(O)c(C(=O)N2CCC2)c1)c1cc2c(-c3cnc4[nH]ccc4c3)cccc2s1 [CDD-3014, N-(3-(azetidine-1-carbonyl)-4-hydroxyphenyl)-4-(1H-pyrrolo[2,3-b]pyridin-5-yl)benzo[b]thiophene-2-carboxamide] | 0.00058 ± 8e-05 µM | 0.00574 ± 0.0005 µM | 0.00292 ± 0.00021 µM |  |  |  |  | 0.789 µM | 0.738 µM | 0.96 µM | 1.02 h | 2.93 h | 0.4 µM (≈ 0.187 µg/mL) |  |  |  |  |  |  |
| O=C(Nc1cncnc1)c1cc2c(-c3cnc4[nH]ccc4c3)cccc2s1 [CDD-3015, N-(pyrimidin-5-yl)-4-(1H-pyrrolo[2,3-b]pyridin-5-yl)benzo[b]thiophene-2-carboxamide] | 0.00234 ± 0.0003 µM | 0.00684 ± 0.00081 µM | 0.00318 ± 0.00014 µM |  |  |  |  | 3.5 µM | 3.2 µM | 8.2 µM | 0.773 h | 3.57 h | 0.3 µM (≈ 0.111 µg/mL) |  |  |  |  |  |  |
| Oc1c2ccccc2c2c3c(cccc13)N=N2 [SP600125, reference compound] |  |  |  |  |  |  |  |  |  |  |  |  |  |  |  |  |  | MEK4-dependent phosphorylation of JNK1 and JNK2 | inhibits pSer63 and pSer73 Jun |
